Legend:
GSPT1 = molecular target: T1, GSPT1 (Homo sapiens, UniProt P15170+Q96SW2); experiment: Degradation of GSPT1 by the compounds (HiBiT signal in GSPT1/HEK293 hibit cells); type: cell-based; conditions: 6 h incubation, Nano Glo HiBiT Lytic Detection
T1 construct: host or cells: HEK293
Experimental: GSPT1/HEK293 hibit cell lines were constructed by Shanghai BioDuro Co., Ltd., HEK293 cell lines were purchased from ATCC (Cat #ATCC® CRL-1573™), DMEM media were purchased from ATCC (Cat #ATCC® 30-2002™), FBS was purchased from Gibco (Cat #10091148), Nano Glo HiBiT Lytic Detection System was purchased from Promega (Cat #N3040), and 96-well plates were purchased from coming (Cat #3610).
The degradation of GSPT1 by the compounds was determined by measuring the intensity of hibit signals in cells. Firstly, the cells were digested with pancreatin, and the digestion was then terminated with medium. The cells were centrifuged, and the supernatant was discarded. The centrifuged cells were resuspended in a fresh complete medium, and the cell density was adjusted to 2.5×10^4 cells/mL. The resuspended cells were inoculated into an opaque 96-well cell culture plate at 100 μL of cell suspension per well, and the cell culture plate was incubated in a cell incubator at 37° C. overnight. The next day, dilutions (20 μL) of compounds with different concentrations were added, and the plate was incubated in a cell incubator for 6 h. After 6 h, 60 μL of Nano Glo HiBiT Lytic Detection System reagent was added and the luminescence values were read on the instrument.
According to the corresponding degradation rate and concentration of each gradient concentration well, a gradient curve of degradation rate was fitted using XLFit software, and the DC50 values of compounds were calculated.

HL60 cells = experiment: HL60 cell killing experiment (CellTiter-Glo cell viability); type: cell-based; conditions: CTG luminescence
Experimental: HL60 cell lines were purchased from ATCC (Cat #ATCC® CCL-240™), IMDM media were purchased from ATCC (Cat #ATCC® 30-2005™), FBS was purchased from Gibco (Cat #10091148), celltiter-glo luminescent cell viability assay was purchased from promega (Cat #G7572), and 96-well plates were purchased from corning (Cat #3610).
The effect of compounds on the growth of HL60 cells was determined by measuring cell viability. Firstly, cells in the logarithmic growth phase were collected and centrifuged, and the culture supernatant was discarded. The centrifuged cells were resuspended in a fresh complete medium, and the cell density was adjusted to 5×10^4 cells/mL. The resuspended cells were inoculated into two opaque 96-well cell culture plates at 100 μL of cell suspension per well, and the cell culture plates were incubated in a cell incubator at 37° C. for 4 h. After 4 h, dilutions (20 μL) of compounds with different concentrations were added. After one of the cell plates was cooled to room temperature, 60 μL of CTG reagent was added, and the luminescence values were read on the instrument as G0. The other one was incubated in a cell incubator for 48 h. After 48 h, 60 μL of CTG reagent was added, and the luminescence values were read on the instrument as G3.
According to the corresponding proliferation rate and concentration of each gradient concentration well, a gradient curve of cell proliferation was fitted using XLFit software, and the GI50 values of compounds were calculated.

[1] = Homo sapiens, HL-60, 48 h incubation

T1 sequence (P15170 whole entry): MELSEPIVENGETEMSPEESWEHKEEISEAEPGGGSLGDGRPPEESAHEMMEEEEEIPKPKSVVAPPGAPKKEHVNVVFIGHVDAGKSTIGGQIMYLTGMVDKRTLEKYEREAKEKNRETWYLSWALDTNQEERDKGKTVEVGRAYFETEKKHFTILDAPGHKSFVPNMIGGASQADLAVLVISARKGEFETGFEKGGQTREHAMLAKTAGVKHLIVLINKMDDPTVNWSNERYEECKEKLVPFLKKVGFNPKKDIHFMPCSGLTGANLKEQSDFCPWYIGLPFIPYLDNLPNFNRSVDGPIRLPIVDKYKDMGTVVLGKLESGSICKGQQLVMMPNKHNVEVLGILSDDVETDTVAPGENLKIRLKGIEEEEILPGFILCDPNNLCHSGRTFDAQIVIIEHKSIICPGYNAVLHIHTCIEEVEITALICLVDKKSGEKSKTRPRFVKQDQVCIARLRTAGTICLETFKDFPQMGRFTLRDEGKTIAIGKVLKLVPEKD
T1 sequence (Q96SW2 whole entry): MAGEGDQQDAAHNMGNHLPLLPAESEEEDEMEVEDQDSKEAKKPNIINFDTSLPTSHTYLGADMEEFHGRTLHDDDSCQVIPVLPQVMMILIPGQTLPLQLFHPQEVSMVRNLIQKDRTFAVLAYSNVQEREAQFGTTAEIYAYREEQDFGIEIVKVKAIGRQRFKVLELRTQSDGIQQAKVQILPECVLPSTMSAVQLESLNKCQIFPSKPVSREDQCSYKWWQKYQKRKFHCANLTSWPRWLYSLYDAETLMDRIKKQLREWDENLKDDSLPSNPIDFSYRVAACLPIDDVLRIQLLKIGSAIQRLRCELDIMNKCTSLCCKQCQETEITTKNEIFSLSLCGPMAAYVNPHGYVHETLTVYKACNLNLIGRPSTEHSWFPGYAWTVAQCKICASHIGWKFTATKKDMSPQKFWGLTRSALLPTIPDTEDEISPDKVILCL
T1 sequence (Q16531 whole entry partner): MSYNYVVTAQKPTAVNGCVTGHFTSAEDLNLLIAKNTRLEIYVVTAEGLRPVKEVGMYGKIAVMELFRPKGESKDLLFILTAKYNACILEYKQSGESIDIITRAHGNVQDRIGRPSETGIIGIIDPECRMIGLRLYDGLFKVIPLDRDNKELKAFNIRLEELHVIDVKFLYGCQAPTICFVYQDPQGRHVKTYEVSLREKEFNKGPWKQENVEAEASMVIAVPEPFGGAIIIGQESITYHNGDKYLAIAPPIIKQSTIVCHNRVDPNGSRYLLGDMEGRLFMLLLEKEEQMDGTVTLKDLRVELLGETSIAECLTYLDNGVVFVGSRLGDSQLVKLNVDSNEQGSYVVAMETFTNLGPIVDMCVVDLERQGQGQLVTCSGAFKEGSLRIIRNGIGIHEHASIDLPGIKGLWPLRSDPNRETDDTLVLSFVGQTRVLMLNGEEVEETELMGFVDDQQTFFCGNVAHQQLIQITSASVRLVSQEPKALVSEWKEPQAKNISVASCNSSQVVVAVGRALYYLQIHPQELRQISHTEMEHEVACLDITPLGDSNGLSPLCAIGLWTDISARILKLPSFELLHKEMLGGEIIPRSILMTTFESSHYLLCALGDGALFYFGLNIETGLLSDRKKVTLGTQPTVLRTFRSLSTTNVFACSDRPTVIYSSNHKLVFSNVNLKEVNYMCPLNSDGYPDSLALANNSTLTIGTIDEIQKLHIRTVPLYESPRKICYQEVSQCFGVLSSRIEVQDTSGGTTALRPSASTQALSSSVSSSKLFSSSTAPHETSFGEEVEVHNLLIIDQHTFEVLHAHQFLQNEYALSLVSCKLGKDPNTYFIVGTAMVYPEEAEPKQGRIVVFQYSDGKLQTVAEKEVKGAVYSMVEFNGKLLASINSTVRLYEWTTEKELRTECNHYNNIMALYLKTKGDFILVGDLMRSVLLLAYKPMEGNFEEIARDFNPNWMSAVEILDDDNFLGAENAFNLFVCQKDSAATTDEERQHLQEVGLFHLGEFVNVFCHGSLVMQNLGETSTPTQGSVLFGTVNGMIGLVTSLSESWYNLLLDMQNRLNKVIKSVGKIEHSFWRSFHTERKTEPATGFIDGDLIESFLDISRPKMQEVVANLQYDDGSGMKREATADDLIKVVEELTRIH

SMILES	DC50 (GSPT1)	GI50 (HL60 cells; [1])	GI50 (HL60 cells; 48 h incubation)
O=C1CCC(N2C(=O)c3cccc(NCc4cccc(C(=O)NC5CCC(c6nc7cccnc7n6C6CC6)CC5)c4)c3C2=O)C(=O)N1 (stereo not shown) [Example 82]	< 100 nM	< 100 nM	–
O=C1CCC(N2C(=O)c3cccc(NCc4cccc(C(=O)NC5CCC(c6csc7ccncc67)CC5)c4)c3C2=O)C(=O)N1 (stereo not shown) [Example 56]	< 100 nM	< 100 nM	–
O=C1CCC(N2C(=O)c3cccc(NCc4cccc(C(=O)NC5CCC(c6nc7ccccc7o6)CC5)c4)c3C2=O)C(=O)N1 (stereo not shown) [Example 17]	< 100 nM	–	< 100 nM
Cn1c(C2CCC(NC(=O)c3cc(CNc4cccc5c4C(=O)N(C4CCC(=O)NC4=O)C5=O)ccn3)CC2)nc2ccncc21 (stereo not shown) [Example 25]	< 100 nM	–	< 100 nM
COc1ccc(CNc2cccc3c2C(=O)N(C2CCC(=O)NC2=O)C3=O)cc1C(=O)N[C@H]1CC[C@H](c2nc3ccncc3s2)CC1 (stereo partly shown) [Example 99]	< 100 nM	< 100 nM	–
O=C1CCC(N2C(=O)c3cccc(NCc4cccc(C(=O)NC5CCC(c6n[nH]c7ccccc67)CC5)c4)c3C2=O)C(=O)N1 (stereo not shown) [Example 15]	< 100 nM	–	< 100 nM
Cn1c2cc(N)ccc2nc1[C@H]1CC[C@H](NC(=O)c2cc(CNc3cccc4c3C(=O)N(C3CCC(=O)NC3=O)C4=O)ccn2)CC1 (stereo partly shown) [Example 131]	< 100 nM	–	–
O=C1CCC(N2C(=O)c3cccc(NCc4cccc(C(=O)NC5CCC(c6csc7ccccc67)CC5)c4)c3C2=O)C(=O)N1 (stereo not shown) [Example 46]	–	–	< 100 nM
O=C1CCC(N2C(=O)c3cccc(NCc4cccc(C(=O)NC5CCC(c6nc7ccccc7s6)CC5)c4)c3C2=O)C(=O)N1 (stereo not shown) [Example 49]	< 100 nM	< 100 nM	–
Cn1c2ccncc2nc1[C@H]1CC[C@H](C(=O)Nc2cccc(CNc3cccc4c3C(=O)N(C3CCC(=O)NC3=O)C4=O)c2)CC1 (stereo partly shown) [Example 36]	< 100 nM	< 100 nM	–
CN(C)c1ccc2c(c1)nc(C1CCC(NC(=O)c3cccc(CNc4cccc5c4C(=O)N(C4CCC(=O)NC4=O)C5=O)c3)CC1)n2C (stereo not shown) [Example 102]	–	< 100 nM	–
O=C1CCC(N2C(=O)c3cccc(NCCCCC(=O)NC4CCC(c5nc6ccccc6[nH]5)CC4)c3C2=O)C(=O)N1 (stereo not shown) [Example 5]	< 100 nM	< 100 nM	–
COc1ccc(CNc2cccc3c2C(=O)N(C2CCC(=O)NC2=O)C3=O)cc1C(=O)N[C@H]1CC[C@H](c2nc3ncccc3s2)CC1 (stereo partly shown) [Example 95]	< 100 nM	< 100 nM	–
COc1ccc2c(c1)nc(C1CCC(NC(=O)c3cccc(CNc4cccc5c4C(=O)N(C4CCC(=O)NC4=O)C5=O)c3)CC1)n2C (stereo not shown) [Example 85]	< 100 nM	< 100 nM	–
O=C1CCC(N2C(=O)c3cccc(NCCCCC(=O)NC4CCC(c5nc6c(cnc7[nH]cc(C8CCOCC8)c76)[nH]5)CC4)c3C2=O)C(=O)N1 (stereo not shown) [Example 109]	< 100 nM	< 100 nM	–
Cn1c(C2CC(NC(=O)c3cccc(CNc4cccc5c4C(=O)N(C4CCC(=O)NC4=O)C5=O)c3)C2)nc2ccncc21 (stereo not shown) [Example 9]	< 100 nM	–	–
Cn1c2cccnc2nc1[C@H]1CC[C@H](NC(=O)c2cc(CNc3cccc4c3C(=O)N(C3CCC(=O)NC3=O)C4=O)ccn2)CC1 (stereo partly shown) [Example 42]	< 100 nM	< 100 nM	–
O=C1CCC(N2C(=O)c3cccc(NCc4cccc(C(=O)NC5CCC(c6coc7ccccc67)CC5)c4)c3C2=O)C(=O)N1 (stereo not shown) [Example 13]	< 100 nM	< 100 nM	–
COc1cc2nc(C3CCC(NC(=O)c4cccc(CNc5cccc6c5C(=O)N(C5CCC(=O)NC5=O)C6=O)c4)CC3)n(C)c2cn1 (stereo not shown) [Example 88]	–	< 100 nM	–
O=C1CCC(N2C(=O)c3cccc(NCc4cccc(C(=O)NC5CCC(c6nc7cccnc7s6)CC5)c4)c3C2=O)C(=O)N1 (stereo not shown) [Example 57]	< 100 nM	< 100 nM	–
Cn1c2cnccc2nc1[C@H]1CC[C@H](C(=O)Nc2cccc(CNc3cccc4c3C(=O)N(C3CCC(=O)NC3=O)C4=O)c2)CC1 (stereo partly shown) [Example 37]	< 100 nM	< 100 nM	–
Cn1c(C2CCC(NC(=O)c3cc(COc4cccc5c4C(=O)N(C4CCC(=O)NC4=O)C5=O)ccn3)CC2)nc2ccncc21 (stereo not shown) [Example 48]	< 100 nM	< 100 nM	–
Cn1c(C2CCC(NC(=O)c3cc(CNc4cccc5c4C(=O)N(C4CCC(=O)NC4=O)C5=O)ccc3F)CC2)nc2ccncc21 (stereo not shown) [Example 77]	< 100 nM	< 100 nM	–

SMILES	DC50 (GSPT1)	GI50 (HL60 cells; [1])	GI50 (HL60 cells; 48 h incubation)
O=C1CCC(N2C(=O)c3cccc(NCc4cccc(C(=O)NC5CCC(c6n[nH]c7ccncc67)CC5)c4)c3C2=O)C(=O)N1 (stereo not shown) [Example 20]	–	< 100 nM	–
O=C1CCC(N2C(=O)c3cccc(NCc4cccc(C(=O)NC5CCC(c6cc7cnccc7s6)CC5)c4)c3C2=O)C(=O)N1 (stereo not shown) [Example 51]	< 100 nM	< 100 nM	–
CN(C)c1cc2c(cn1)nc([C@H]1CC[C@H](NC(=O)c3cc(CNc4cccc5c4C(=O)N(C4CCC(=O)NC4=O)C5=O)ccn3)CC1)n2C (stereo partly shown) [Example 106]	–	< 100 nM	–
COc1ccc(CNc2cccc3c2C(=O)N(C2CCC(=O)NC2=O)C3=O)cc1C(=O)N[C@H]1CC[C@H](c2nc3cc(N)ccc3s2)CC1 (stereo partly shown) [Example 133]	< 100 nM	–	–
O=C1CCC(N2C(=O)c3cccc(NCc4cccc5c4CCN5C(=O)[C@H]4CC[C@H](c5nc6cccnc6s5)CC4)c3C2=O)C(=O)N1 (stereo partly shown) [Example 87]	–	< 100 nM	–
CN(C)c1cc2c(cn1)nc([C@H]1CC[C@H](C(=O)Nc3cccc(CNc4cccc5c4C(=O)N(C4CCC(=O)NC4=O)C5=O)c3)CC1)n2C (stereo partly shown) [Example 103]	–	< 100 nM	–
O=C1CCC(N2C(=O)c3cccc(NCc4cccc(C(=O)NC5CCC(c6csc7ncccc67)CC5)c4)c3C2=O)C(=O)N1 (stereo not shown) [Example 54]	–	< 100 nM	–
Cn1c2ccccc2nc1[C@H]1CC[C@H](N2Cc3ccc(CNc4cccc5c4C(=O)N(C4CCC(=O)NC4=O)C5=O)cc3C2=O)CC1 (stereo partly shown) [Example 68]	–	< 100 nM	–
O=C1CCC(N2C(=O)c3cccc(NCc4cccc(C(=O)NC5CCCC(F)(F)C5)c4)c3C2=O)C(=O)N1 (stereo not shown) [Example 3]	< 100 nM	–	–
Cn1c2cnccc2nc1[C@H]1CC[C@H](C(=O)Nc2cccc(CNc3cccc4c3C(=O)N(C3CCC(=O)NC3=O)C4=O)c2F)CC1 (stereo partly shown) [Example 78]	–	< 100 nM	–
COc1ncc(CNc2cccc3c2C(=O)N(C2CCC(=O)NC2=O)C3=O)cc1C(=O)N[C@H]1CC[C@H](c2nc3cccnc3s2)CC1 (stereo partly shown) [Example 134]	< 100 nM	–	–
CN(C[C@H]1CC[C@H](c2nc3cccnc3s2)CC1)c1cc(CNc2cccc3c2C(=O)N(C2CCC(=O)NC2=O)C3=O)ccn1 (stereo partly shown) [Example 64]	–	< 100 nM	–
O=C1CCC(N2C(=O)c3cccc(NCc4ccnc(NC[C@H]5CC[C@H](c6nc7cccnc7s6)CC5)c4)c3C2=O)C(=O)N1 (stereo partly shown) [Example 28]	–	< 100 nM	–
COc1ccc2nc([C@H]3CC[C@H](CNc4cc(CNc5cccc6c5C(=O)N(C5CCC(=O)NC5=O)C6=O)ccn4)CC3)sc2n1 (stereo partly shown) [Example 137]	< 100 nM	–	–
O=C1CCC(N2C(=O)c3cccc(NCc4cccc(C(=O)NC5CCC(c6csc7ccccc67)CC5)c4)c3C2=O)C(=O)N1 (stereo not shown) [Example 45]	–	< 100 nM	–
Cn1c(N2CCC(NC(=O)c3cc(CNc4cccc5c4C(=O)N(C4CCC(=O)NC4=O)C5=O)ccn3)CC2)nc2ccccc21 (stereo not shown) [Example 41]	–	< 100 nM	–
COc1ccc(CNc2cccc3c2C(=O)N(C2CCC(=O)NC2=O)C3=O)cc1C(=O)N[C@H]1CC[C@H](c2nc3cc(N)cnc3s2)CC1 (stereo partly shown) [Example 132]	< 100 nM	–	–
COc1ccc2nc([C@H]3CC[C@H](CNc4cc(COc5cccc6c5CN(C5CCC(=O)NC5=O)C6=O)ccn4)CC3)sc2n1 (stereo partly shown) [Example 136]	< 100 nM	–	–
O=C1CCC(N2Cc3c(OCc4ccnc(NC[C@H]5CC[C@H](c6nc7cccnc7s6)CC5)c4)cccc3C2=O)C(=O)N1 (stereo partly shown) [Example 135]	< 100 nM	–	–
O=C1CCC(N2C(=O)c3cccc(NC4(c5ccnc(C(=O)N[C@H]6CC[C@H](c7nc8cccnc8s7)CC6)c5)CC4)c3C2=O)C(=O)N1 (stereo partly shown) [Example 92]	–	< 100 nM	–
O=C1CCC(N2C(=O)c3cccc(NCc4cccc(C(=O)NC5CCC(c6ccccc6)CC5)c4)c3C2=O)C(=O)N1 (stereo not shown) [Example 4]	< 100 nM	–	–
Cn1c2ccc(CNc3cccc4c3C(=O)N(C3CCC(=O)NC3=O)C4=O)cc2nc1[C@H]1CC[C@H](c2nc3cccnc3s2)CC1 (stereo partly shown) [Example 73]	–	< 100 nM	–

Source: patent US20250361239A1, “PROTEIN DEGRADERS AND USES THEREOF” (ZHUHAI YUFAN BIOTECHNOLOGIES CO., LTD., priority 2022, published 2025)
